Data: ChEMBL document CHEMBL1201862, “PubChem BioAssay data set” (2004)
Values belong to the molecule of their own block, whether it stands above or below them. The source made the active and inactive calls.

Legend:
[1] = target: COUP transcription factor 2 (Homo sapiens, UniProt P24468); experiment: Luminescence-based cell-based high throughput dose response assay to identify inhibitors of COUP-TFII (NR2F2).; format: functional;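 also: HEK293 cells transiently cotransfected with COUP-TFII expression vector and reporter; luciferase reporter luminescence driven by COUP-TFII from the pX2-168 reporter plasmid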
Sequence of COUP transcription factor 2 (P24468 whole entry, the tested form may be a part): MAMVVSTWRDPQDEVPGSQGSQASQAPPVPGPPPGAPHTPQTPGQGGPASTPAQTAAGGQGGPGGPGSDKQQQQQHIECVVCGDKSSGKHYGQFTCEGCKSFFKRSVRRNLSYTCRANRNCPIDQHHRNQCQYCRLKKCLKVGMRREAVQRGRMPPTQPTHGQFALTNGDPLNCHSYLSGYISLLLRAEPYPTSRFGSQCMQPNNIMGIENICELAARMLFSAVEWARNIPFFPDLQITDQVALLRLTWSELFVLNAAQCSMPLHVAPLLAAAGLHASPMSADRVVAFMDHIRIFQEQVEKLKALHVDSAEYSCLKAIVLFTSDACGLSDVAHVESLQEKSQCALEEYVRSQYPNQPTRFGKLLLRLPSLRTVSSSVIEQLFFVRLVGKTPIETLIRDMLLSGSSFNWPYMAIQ

[2] = target: Oxysterols receptor LXR-beta (Homo sapiens, UniProt P55055); format: functional, cell-based;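 also: agonist activity at LXR measured by a cell-based luminescence readout across a dose range, run as a counterscreen for daf-12 agonists; HEK293 cells with Gal4-LXR fusion and GAL4-driven luciferase reporter; potency for activation of Gal4-LXR reporter so compounds are agonists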
Sequence of Oxysterols receptor LXR-beta (P55055 whole entry, the tested form may be a part): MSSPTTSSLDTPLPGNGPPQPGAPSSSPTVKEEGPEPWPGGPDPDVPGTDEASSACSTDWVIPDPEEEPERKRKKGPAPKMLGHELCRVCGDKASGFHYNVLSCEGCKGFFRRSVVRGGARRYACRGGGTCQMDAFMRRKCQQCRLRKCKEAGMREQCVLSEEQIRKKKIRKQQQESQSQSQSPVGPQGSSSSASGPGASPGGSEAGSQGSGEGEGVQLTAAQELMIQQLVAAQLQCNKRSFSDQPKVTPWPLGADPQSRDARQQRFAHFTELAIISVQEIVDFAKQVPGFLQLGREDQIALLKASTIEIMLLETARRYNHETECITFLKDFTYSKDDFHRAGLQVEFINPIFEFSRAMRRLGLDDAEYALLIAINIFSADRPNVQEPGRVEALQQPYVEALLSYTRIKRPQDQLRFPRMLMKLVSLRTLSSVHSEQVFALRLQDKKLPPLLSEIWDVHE

[3] = target: Paired box protein Pax-8 (Homo sapiens, UniProt Q06710); experiment: inhibitors of PAX8-driven TPO luciferase reporter, dose response, RMG-I cells, cherry-pick (AID 687027); format: functional, cell-based;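 also: luciferase reporter driven by Pax8 target thyroperoxidase promoter measured by SteadyGlo luminescence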
Sequence of Paired box protein Pax-8 (Q06710 whole entry): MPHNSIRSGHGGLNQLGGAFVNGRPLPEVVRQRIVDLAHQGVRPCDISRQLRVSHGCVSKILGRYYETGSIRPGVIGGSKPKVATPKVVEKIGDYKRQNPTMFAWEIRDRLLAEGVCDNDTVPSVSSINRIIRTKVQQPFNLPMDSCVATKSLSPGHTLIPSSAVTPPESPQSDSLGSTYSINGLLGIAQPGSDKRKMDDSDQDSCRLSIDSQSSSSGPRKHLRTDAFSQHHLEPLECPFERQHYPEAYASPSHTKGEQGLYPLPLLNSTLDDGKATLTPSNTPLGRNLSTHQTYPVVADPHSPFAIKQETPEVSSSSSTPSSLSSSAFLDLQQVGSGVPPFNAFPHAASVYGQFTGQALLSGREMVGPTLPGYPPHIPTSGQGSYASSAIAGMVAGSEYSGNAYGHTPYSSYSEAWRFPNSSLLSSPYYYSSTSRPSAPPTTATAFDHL

[4] = inhibitors of PGC1a acetylation in cells, dose response, cell-based, cherry-picked samples (AID 720514); format: functional;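 also: potency may reflect raised or lowered acetylation signal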
[5] = non-specific cell cytotoxicity, dose response, cytotoxicity control for PAX8 inhibitor project, plate reader, dry powder samples (AID 743021); format: functional, cell-based
[6] = tested on: HEK293; experiment: HEK293T cell cytotoxicity, dose response, cytotoxicity control, ATP luminescence, cherry-pick samples (AID 687005); format: functional, cell-based; settings: Homo sapiens;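 also: cells exposed to compound for 48 hours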
[7] = HEK293 Cytotoxicity Assay Measured in Cell-Based System Using Plate Reader - 7071-01_Inhibitor_Dose_CherryPick_Activity_Set2.; format: functional
[8] = IOSE-T80 ovarian epithelial cell cytotoxicity, dose response, cytotoxicity control for PAX8 inhibitor project, plate reader, dry powder samples (AID 743045); format: functional, cell-based
[9] = NIH:OVCAR-3 ovarian cancer cell cytotoxicity, dose response, PAX8 inhibitor project, plate reader, dry powder samples (AID 743044); format: functional, cell-based
[10] = cytotoxicity in OVCAR8 ovarian cancer cells, dose response, PAX8 project, cell-based, plate reader, dry powder samples (AID 743197); format: functional; settings: OVCAR-8
[11] = A2780 ovarian cancer cell cytotoxicity, dose response, cytotoxicity control, plate reader, dry powder samples (AID 743046); format: functional, cell-based
[12] = IGROV1 ovarian cancer cell cytotoxicity, dose response, PAX8 inhibitor project, plate reader, dry powder samples (AID 743043); format: functional, cell-based; settings: IGROV-1
[13] = Dose-response inhibition of insulin secretion in a rat insulinoma line at 5 mM glucose (AID 1117331); format: functional, cell-based; settings: INS-1E
[14] = half-maximal inhibitory concentration for glucagon-like peptide-1 release, STC-1 cell line, dose-response (AID 1117345); format: functional, cell-based
[15] = Glucagon-like peptide 1 release potency, NCI-H716 cell line, dose-response, half-maximal inhibitory concentration (AID 1117344); format: functional, cell-based
[16] = NIH-3T3 fibroblast cytotoxicity, dose response, cytotoxicity control, cell-based, fluorescence, Alamar Blue, secondary assay (AID 2327); format: functional;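 also: NIH-3T3 mouse fibroblasts cultured with fluconazole at 8 µg/mL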
[17] = C. albicans growth with fluconazole, confirmation, fluorescence, retest (AID 2467); format: functional, cell-based
[18] = target: Kallikrein-7 (Homo sapiens, UniProt P49862); experiment: Fluorescence Intensity-based biochemical primary high throughput dose response assay to identify activators of kallikrein-7 (K7) zymogen.
Sequence of Kallikrein-7 (P49862 whole entry): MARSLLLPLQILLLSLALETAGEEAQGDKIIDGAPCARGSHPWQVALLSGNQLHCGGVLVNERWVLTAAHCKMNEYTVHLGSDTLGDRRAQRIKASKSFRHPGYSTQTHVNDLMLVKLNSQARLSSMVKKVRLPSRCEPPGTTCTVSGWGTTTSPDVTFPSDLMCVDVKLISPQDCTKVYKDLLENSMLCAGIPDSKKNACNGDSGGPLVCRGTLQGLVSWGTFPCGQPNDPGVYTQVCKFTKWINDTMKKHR

IC50 [1]: 8.73 µM (active)
Compound: COc1ccc(NC(=O)C2Cc3c(-c4ccc5c(c4)OCO5)ccnc3O2)cc1OC (stereo not drawn)

EC50 [2]: > 67.6 µM (inactive)
Compound: OC(c1ccccc1)c1nc(-c2cnc3ccccc3c2)cs1 (stereo not drawn)

Compound: O=C(Nc1ccc(C(F)(F)F)cc1)N1C[C@@H]2N[C@H](C1)[C@@H]2c1ccc(-c2ccccc2)cc1
AC50 [3]: 8.62 µM (active) | AC50 [4]: 9.06 µM (active) | AC50 [5]: 33.8 µM (active)

Compound: Cc1ccc(S(=O)(=O)N(C)C[C@@H]2Oc3ccc(NS(=O)(=O)c4ccc(Cl)cc4)cc3CC(=O)N([C@@H](C)CO)C[C@@H]2C)cc1
AC50 [6]: 28 µM (active) | AC50 [7]: 28 µM (active)

Compound: CC(C)CC#Cc1ccc2c(c1)O[C@@H](CN(C)Cc1ccncc1)[C@H](C)CN([C@H](C)CO)S2(=O)=O
AC50 [3]: 4.41 µM (active) | AC50 [8]: 48.9 µM (active) | AC50 [9]: 40.7 µM (active) | AC50 [10]: 32.6 µM (active)

Compound: Fc1cccc(CN2C[C@@H]3N[C@H](C2)[C@@H]3c2ccc(-c3ccccc3)cc2)c1
AC50 [11]: 15.1 µM (active) | AC50 [4]: 7.52 µM (active) | AC50 [9]: 31 µM (active) | AC50 [12]: 27.7 µM (active) | AC50 [10]: 39.9 µM (active)

Compound: Cc1c(N)cccc1C(F)(F)F
IC50 [13]: > 33.3 µM (inactive) | IC50 [14]: > 40 µM (inactive) | IC50 [15]: > 40 µM (inactive)

Compound: CC/N=c1\scc(-c2ccc3c(c2)NC(=O)CO3)n1N=C1CCCC1
EC50 [16]: > 160 µM (inactive) | EC50 [17]: 2.31 µM (active) | IC50 [1]: 8.75 µM (active)

EC50 [18]: 29 µM (inactive)
Compound: COc1cc(/C=N/NC(=O)c2c(C)nc3ccc(Cl)cn23)cc(OC)c1OC
